From ChEMBL document CHEMBL2176977 (J Med Chem, 2012)
pEC50, pKi: −log10 of the molar value. The source made the active and inactive calls. The rule behind the calls is not given here.

Assays:
Rhesus monkey [1] = experiment: Reduction in morphine dependence in withdrawn rhesus monkey model assessed as attenuation of withdrawal effects at 0.5 mg/kg; assay type: functional, organism-based; set-up: dose 0.5 mg/kg; details: Macaca mulatta
Rhesus monkey [2] = experiment: Reduction in morphine dependence in withdrawn rhesus monkey model assessed as attenuation of withdrawal effects at 0.1 mg/kg; assay type: functional, organism-based; set-up: dose 0.1 mg/kg; details: Macaca mulatta
[3] = biological target: Kappa-type opioid receptor (Cavia porcellus, UniProt P41144); experiment: Agonist activity at KOR in guinea pig vas deferens; assay type: functional, tissue-based
Kappa-type opioid receptor, sequence (P41144 whole entry): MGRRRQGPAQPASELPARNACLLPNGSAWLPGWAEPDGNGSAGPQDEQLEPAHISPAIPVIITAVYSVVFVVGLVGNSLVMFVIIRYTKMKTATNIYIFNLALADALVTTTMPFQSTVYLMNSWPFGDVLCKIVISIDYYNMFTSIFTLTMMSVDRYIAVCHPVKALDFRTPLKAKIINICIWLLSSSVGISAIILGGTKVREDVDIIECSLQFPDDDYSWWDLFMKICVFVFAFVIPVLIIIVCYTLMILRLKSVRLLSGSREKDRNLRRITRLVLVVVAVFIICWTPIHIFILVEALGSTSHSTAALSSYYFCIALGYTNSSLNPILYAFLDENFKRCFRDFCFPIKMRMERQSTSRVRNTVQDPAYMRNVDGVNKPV

Mu-type opioid receptor = Mu-type opioid receptor (Cavia porcellus, UniProt P97266); experiment: Agonist activity at MOR in guinea pig vas deferens; assay type: functional, tissue-based
Mu-type opioid receptor, sequence (P97266 whole entry): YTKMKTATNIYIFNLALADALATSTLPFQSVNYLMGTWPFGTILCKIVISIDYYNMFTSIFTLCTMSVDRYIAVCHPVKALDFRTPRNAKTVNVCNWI

[4] = Agonist activity at DOR in guinea pig vas deferens; assay type: functional, tissue-based; details: Cavia porcellus
[5] = Displacement of [3H]Cl-DPDPE from DOR in guinea pig brain membrane
Mus musculus = experiment: Antinociceptive activity in mouse assessed as tail withdrawal latency at 100 mg/kg by 55 degC warm water test; assay type: functional

COC(=O)/C=C/C(=O)N[C@@]12CCC(=O)[C@@H]3Oc4c(O)ccc5c4[C@@]31CCN(CC1CC1)[C@@H]2C5
Activity (Rhesus monkey [1]): inactive
Activity (Rhesus monkey [2]): inactive

CO[C@]12CC[C@@]3(C[C@@H]1[C@](C)(O)C(C)(C)C)[C@H]1Cc4ccc(O)c5c4[C@@]3(CCN1CC1CC1)[C@H]2O5 [BUPRENORPHINE]
pEC50 [3]: 7.68
pEC50 (Mu-type opioid receptor): 7.68

CO[C@@]12CC[C@@]3(C[C@@H]1[C@](C)(O)C(C)(C)C)[C@H]1Cc4ccc(O)c5c4[C@@]3(CCN1CC1CC1)[C@H]2O5 [BUPRENORPHINE]
pEC50 [4]: 7.68
pKi [5]: 8.80

CN1CC[C@]23c4c5ccc(O)c4O[C@H]2[C@@H](O)C=C[C@H]3[C@H]1C5 [MORPHINE]
Activity (Mus musculus): 100%
